Reference: patent publication US8927009B2 (AbbVie Inc., priority 2009, dated 2015)
Blank lines part the entries; values can stand above or below the molecule they belong to.

Assays:
[1] = Drug solubility in ternary excipient systems; format: physicochemical; set-up: key: ✓: vehicle miscible, or drug fully dissolved in vehicle; x: vehicle immiscible or miscible but turbid, or residual solids present (due to undissolved drug or precipitation); details: 10% salt, 20% free base, listed as free base
Description: Solvents evaluated included Labrafil M 1944 CS™, Imwitor 742™, oleic acid, Capmul PG-8™, Capmul PG-12™, Lauroglycol 90™ (propylene glycol monolaurate, available from Gattefossé) and Phosal 53 MCT™. Surfactants evaluated included Tween 80™, Cremophor RH40™, Gelucire 44/14™ (polyoxyethylene glyceryl laurate, available from Gattefossé) and Labrasol™.

[2] = Solubility in lipid solvents and solvent mixtures in ambient conditions; format: physicochemical; details: listed as Parent (Form I)
Description: Solubility of ABT-263 parent (free base, crystalline Form I) and ABT-263 bis-HCl salt was tested in a variety of lipid solvents and solvent mixtures in ambient conditions. Trademarked solvents in this study, unless identified hereinabove, are as follows (substantially equivalent products from other manufacturers can be substituted if available): • Miglyol 810™ of Sasol: caprylic/capric triglycerides; • Capmul MCM™ of Abitec: glyceryl caprylate/caprate; • Captex 300™ of Abitec: caprylic/capric triglycerides; • Labrafil M 2125 CS™ of Gattefossé: polyoxyethylene glyceryl linoleate; • Tween 20™ of Uniqema: polysorbate 20; • Labrasol™ of Gattefossé: polyoxyethylene glyceryl caprylate/caprate; • Cremophor RH40™: polyoxyethyene (40) hydrogenated castor oil. “PE-91” is Phosal 53 MCT™+ethanol, 9:1 by volume. “LOT-343” is Labrafil M 1944 CS™+oleic acid+Tween 80™, 30:40:30 by weight.
In some cases, indicated in Table 4 by an asterisk (*), solubility was initially high but precipitation occurred upon standing.

Bcl-2 = Bcl-2 (Homo sapiens, UniProt P10415); details: cited from earlier work
Bcl-w = biological target: T1, Bcl-w (Homo sapiens, UniProt Q92843); details: cited from earlier work
T1 sequence (Q92843 1-193): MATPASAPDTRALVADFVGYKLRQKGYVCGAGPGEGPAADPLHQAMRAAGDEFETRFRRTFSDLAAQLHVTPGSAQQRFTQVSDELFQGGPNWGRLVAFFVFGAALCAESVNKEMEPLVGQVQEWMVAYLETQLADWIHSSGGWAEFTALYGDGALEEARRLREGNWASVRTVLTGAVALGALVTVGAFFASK

Bcl-XL = Bcl-XL (Homo sapiens, UniProt Q07817); details: cited from earlier work
Bcl-XL, sequence (Q07817 whole entry): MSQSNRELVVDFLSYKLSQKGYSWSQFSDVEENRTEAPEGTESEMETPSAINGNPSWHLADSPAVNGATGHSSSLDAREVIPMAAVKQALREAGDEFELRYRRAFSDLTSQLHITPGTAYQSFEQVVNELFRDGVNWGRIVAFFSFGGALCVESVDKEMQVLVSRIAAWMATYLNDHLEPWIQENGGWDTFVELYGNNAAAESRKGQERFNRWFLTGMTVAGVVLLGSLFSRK

Bcl-2, sequence (P10415 whole entry): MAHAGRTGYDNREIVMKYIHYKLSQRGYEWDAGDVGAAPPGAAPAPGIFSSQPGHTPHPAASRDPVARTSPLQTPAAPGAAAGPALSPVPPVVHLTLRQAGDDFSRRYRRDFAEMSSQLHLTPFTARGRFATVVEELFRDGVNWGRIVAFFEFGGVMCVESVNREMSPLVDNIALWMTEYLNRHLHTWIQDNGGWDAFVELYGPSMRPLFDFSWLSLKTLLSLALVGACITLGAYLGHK

ABT-263 solubility ([1]; Imwitor 742/Labrafil M 1944 CS/Cremophor RH40 (ILC) 40:40:20 % by weight): x
ABT-263 solubility ([1]; Imwitor 742/Labrafil M 1944 CS/Cremophor RH40 (ILC) 50:30:20 % by weight): x
ABT-263 solubility ([1]; Imwitor 742/Labrafil M 1944 CS/Cremophor RH40 (ILC) 50:40:10 % by weight): x
ABT-263 solubility ([1]; Imwitor 742/Labrafil M 1944 CS/Cremophor RH40 (ILC) 60:30:10 % by weight): x
ABT-263 solubility ([1]; Imwitor 742/Labrafil M 1944 CS/Labrasol (ILL) 40:40:20 % by weight): x
ABT-263 solubility ([1]; Imwitor 742/Labrafil M 1944 CS/Labrasol (ILL) 50:30:20 % by weight): x
ABT-263 solubility ([1]; Imwitor 742/Labrafil M 1944 CS/Labrasol (ILL) 50:40:10 % by weight): x
ABT-263 solubility ([1]; Imwitor 742/Labrafil M 1944 CS/Labrasol (ILL) 60:30:10 % by weight): x
ABT-263 solubility ([1]; Labrafil M 1944 CS/Imwitor 742/Tween 80 (LIT) 30:40:30 % by weight): x
ABT-263 solubility ([1]; Labrafil M 1944 CS/Imwitor 742/Tween 80 (LIT) 30:45:25 % by weight): x
ABT-263 solubility ([1]; Labrafil M 1944 CS/Imwitor 742/Tween 80 (LIT) 40:30:30 % by weight): x
ABT-263 solubility ([1]; Labrafil M 1944 CS/Imwitor 742/Tween 80 (LIT) 40:35:25 % by weight): x
ABT-263 solubility ([1]; Lauroglycol 90/Labrafil M 1944 CS/Labrasol (LLL) 50:40:10 % by weight): x
ABT-263 solubility ([1]; Lauroglycol 90/Labrafil M 1944 CS/Labrasol (LLL) 60:30:10 % by weight): x
Solubility ([2]; in Labrafil M 2125 CS, ambient conditions): >290 mg/g
Solubility ([2]; in PE-91 (Phosal 53 MCT + ethanol 9:1 by volume), ambient conditions): >250 mg/g
Solubility ([2]; in PEG-400, ambient conditions): >200 mg/g
Solubility ([2]; in corn oil, ambient conditions): <86 mg/g
Solubility ([2]; in sesame oil, ambient conditions): <75 mg/g
SMILES: CC1(C)CCC(c2ccc(Cl)cc2)=C(CN2CCN(c3ccc(C(=O)NS(=O)(=O)c4ccc(N[C@H](CCN5CCOCC5)CSc5ccccc5)c(S(=O)(=O)C(F)(F)F)c4)cc3)CC2)C1 [ABT-263]

SMILES: CN(C)CC[C@H](CSc1ccccc1)Nc1ccc(S(=O)(=O)NC(=O)c2ccc(N3CCN(Cc4ccccc4-c4ccc(Cl)cc4)CC3)cc2)cc1[N+](=O)[O-] [ABT-737]
binding affinity (Bcl-2): < 1 nM
binding affinity (Bcl-w): < 1 nM
binding affinity (Bcl-XL): < 1 nM
